# Experimental data from the supplement of paper PMC10307832.
# Experiments:
# Experiment in all cases: relative viability (nuclei count vs DMSO), 5 days (fraction); higher = more cells survive
# [1] = compound: Cc1ccc(C(=O)N(CCCN)[C@@H](c2nc3cc(Cl)ccc3c(=O)n2Cc2ccccc2)C(C)C)cc1 [Ispinesib] + N=C(N)NC(=N)NCCc1ccccc1 [Phenformin] (partner 250 µM)
# Method in brief: (§1)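 Medians of duplicate plates are given as relative viability. That measure is the nuclei count in treated wells divided by the count in vehicle wells. Counts were taken on 4× images of lung cancer cell lines in 1536-well plates, 5 days after pin-tool dosing the day after seeding with one drug alone or a fixed anchor-drug dose plus five library-drug doses (not always all listed) in √10 steps.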
# [2] = compound: Cc1ccc(C(=O)N(CCCN)[C@@H](c2nc3cc(Cl)ccc3c(=O)n2Cc2ccccc2)C(C)C)cc1 [Ispinesib] + CCNC(=O)c1noc(-c2cc(C(C)C)c(O)cc2O)c1-c1ccc(CN2CCOCC2)cc1 [Luminespib] (partner 0.01 µM)
# Method in brief: as §1
# [3] = compound: C[C@]1(O)C[C@@H](c2nc(-c3ccc4ccc(-c5ccccc5)nc4c3)c3c(N)nccn32)C1 [Linsitinib] + O=C(CCCCCCC(=O)Nc1ccccc1)NO [Vorinostat] (partner 1 µM)
# Method in brief: as §1
# [4] = compound: C[C@]1(O)C[C@@H](c2nc(-c3ccc4ccc(-c5ccccc5)nc4c3)c3c(N)nccn32)C1 [Linsitinib] + N=C(N)NC(=N)NCCc1ccccc1 [Phenformin] (partner 250 µM)
# Method in brief: as §1
Cell Line,relative viability ([1]; first compound 0.001 µM),relative viability ([1]; first compound 0.003162 µM),relative viability ([1]; first compound 0.01 µM),relative viability ([1]; first compound 0.03162 µM),relative viability ([1]; first compound 0.1 µM),relative viability ([2]; first compound 0.001 µM),relative viability ([2]; first compound 0.003162 µM),relative viability ([2]; first compound 0.01 µM),relative viability ([2]; first compound 0.03162 µM),relative viability ([2]; first compound 0.1 µM),relative viability ([3]; first compound 0.01 µM),relative viability ([3]; first compound 0.03162 µM),relative viability ([3]; first compound 0.1 µM),relative viability ([3]; first compound 0.3162 µM),relative viability ([3]; first compound 1 µM),relative viability ([4]; first compound 0.01 µM),relative viability ([4]; first compound 0.03162 µM),relative viability ([4]; first compound 0.1 µM),relative viability ([4]; first compound 0.3162 µM),relative viability ([4]; first compound 1 µM)
NCI-H2126,0.516,0.531,0.533,0.433,0.263,0.927,1.02,1.03,0.844,0.428,0.855,0.8,0.767,0.451,0.514,0.531,0.512,0.484,0.338,0.319
ChaGo-K-1,0.519,0.5,0.529,0.535,0.172,0.727,0.712,0.82,0.639,0.492,0.798,0.774,0.78,–,0.694,0.527,0.515,0.499,0.332,0.457
NCI-H1437,0.326,0.335,0.371,0.251,0.189,1.16,1.22,1.26,1.22,0.994,0.815,0.709,0.851,0.618,0.626,0.281,0.321,0.303,0.272,0.288
SK-LU-1,0.555,0.627,0.561,0.251,0.203,0.212,0.224,0.219,0.194,0.178,0.71,0.557,0.788,0.75,0.742,0.558,–,0.588,0.391,0.325
NCI-H838,0.649,0.605,0.827,0.194,0.163,0.302,0.325,0.278,0.322,0.268,0.704,0.645,0.652,0.517,0.545,0.528,0.487,0.462,–,0.395
NCI-H1755,0.553,0.646,0.638,0.463,0.195,0.292,0.641,0.423,0.315,0.441,0.741,0.773,0.821,0.58,0.727,0.66,0.64,0.629,0.372,0.503
NCI-H2228,0.283,0.312,0.321,0.126,0.145,0.121,0.14,0.228,0.127,0.159,0.593,0.409,0.664,0.465,0.476,0.307,0.397,0.325,0.273,0.278
NCI-H1915,0.413,0.372,0.392,0.165,0.176,0.979,0.987,1.13,0.706,0.385,0.547,0.51,0.528,0.46,0.394,0.371,0.389,0.247,0.339,0.373
NCI-H2347,0.404,0.547,0.414,0.553,0.386,0.375,0.503,0.624,0.359,0.469,0.677,0.583,0.591,0.444,0.57,0.391,0.534,0.385,–,0.467
HARA,0.492,0.509,0.614,0.343,0.113,1.12,0.617,0.788,0.64,0.233,0.51,0.513,0.648,0.347,0.351,0.427,0.469,0.435,–,0.4
NCI-H2085,0.751,0.692,0.75,0.474,0.278,0.484,0.421,0.491,0.401,0.447,0.778,0.707,0.791,0.8,0.681,0.763,0.723,0.727,0.663,0.574
NCI-H650,0.451,0.445,0.476,0.312,0.18,0.739,0.836,0.808,0.621,0.783,0.438,0.359,0.432,–,0.394,0.443,0.484,0.432,0.337,0.364
NCI-H727,0.601,0.6,0.385,0.466,0.309,0.244,0.284,0.349,0.0037,0.308,0.978,1.4,1.08,0.82,0.927,0.562,0.489,0.483,0.503,0.422
NCI-H1993,0.537,0.483,0.543,0.518,0.436,0.801,0.45,1.01,0.821,0.634,0.936,0.737,0.781,0.286,0.644,0.523,0.465,0.572,0.526,0.526
EMC-BAC-2,0.557,0.545,0.534,0.372,0.209,0.797,1.32,1.36,1.13,0.6,0.44,0.441,0.426,0.398,0.214,0.506,0.487,0.485,0.322,0.388
NCI-H2087,0.492,0.473,0.441,0.32,0.134,0.168,0.159,0.189,0.14,0.151,0.68,0.74,0.702,0.693,0.795,0.498,0.54,0.417,0.222,0.365
NCI-H441,0.977,0.823,0.84,0.247,0.301,0.346,0.404,0.448,0.389,0.292,0.904,0.829,0.84,0.556,0.547,0.944,0.966,0.675,0.442,0.298
LXF-289,0.515,0.527,0.541,0.392,0.0531,0.622,0.794,0.743,0.556,0.617,0.735,0.69,0.755,0.473,0.729,0.5,0.448,0.523,–,0.471
NCI-H661,0.288,0.299,0.224,0.195,0.216,0.926,0.913,0.921,0.586,0.224,0.76,0.829,0.75,0.699,0.825,0.291,0.221,0.268,0.293,0.255
PC-3 [JPC-3],0.494,0.475,0.44,0.461,0.254,0.716,0.853,0.75,0.748,0.548,0.78,0.784,0.843,0.492,0.571,0.464,0.48,0.515,0.436,0.45
NCI-H2342,0.671,0.634,0.685,0.523,0.378,0.746,0.768,0.698,0.703,0.592,0.689,0.707,0.764,0.727,0.756,0.46,0.584,0.527,0.511,0.488
NCI-H1651,0.365,0.413,0.374,0.299,0.121,0.989,0.88,0.859,1.23,0.404,0.267,0.535,0.5,0.543,0.484,0.324,0.344,0.304,0.272,0.311
SW 900,0.619,0.41,0.812,0.427,0.21,0.206,0.171,0.164,0.183,0.19,0.627,0.436,0.458,0.285,0.272,0.701,0.753,0.553,0.433,0.37
NCI-H1355,0.422,0.465,0.495,0.291,0.315,0.702,0.729,0.881,0.598,0.488,0.66,0.65,0.574,0.444,0.311,0.452,0.447,0.393,0.32,0.304
LC-2-ad,0.646,0.638,0.611,0.285,0.207,1.08,1.3,1.05,0.915,0.396,0.719,0.693,0.692,0.487,0.443,0.606,0.572,0.558,0.332,0.353
NCI-H1944,0.199,0.247,0.206,0.167,0.106,0.75,0.781,0.968,0.475,0.617,0.508,0.674,0.537,0.45,0.317,0.217,0.259,0.192,0.165,0.159
HCC-827,0.424,0.432,0.457,0.332,0.257,0.69,0.536,0.876,0.482,0.529,0.207,0.829,0.799,–,0.639,0.423,0.433,0.418,–,0.385
